These results are taken from patent US11512074B2, “Substituted diamino heterocyclic carboxamide compound and a composition containing the compound and use thereof” (Shenzhen TargetRx, Inc., priority 2018, dated 2022).

A short description of the data set: Pharmacokinetic experiment in rats. In kind it is in vivo, Sprague-Dawley rats. To be noted: rat; for AUC(0-t) / Cmax / Tmax / half-life / AUC(0-inf) / MRT inf: male, Sprague-Dawley, plasma; for AUC(0-inf): read-out: AUCINF_pred; for MRT inf: read-out: MRTINF_pred; for F: PO 10 mg/kg vs IV 3 mg/kg. As for the experimental part: Six male Sprague-Dawley rats, 7 to 8 weeks old, weighing approximately 210 g, were divided into 2 groups with 3 rats in each group. The pharmacokinetic differences of the compounds were compared after they were administered to the rats at a single dose through vein (in vein 3 mg/kg) or mouth (orally 10 mg/kg).
The rats were fed with standard feed and water, and fasted 16 hours before the experiment. The drugs were dissolved with PEG400 and dimethyl sulfoxide. The blood samples were collected from eyelids at the time point of 0.083, 0.25, 0.5, 1, 2, 4, 6, 8, 12 and 24 hours after administration.
The rats were anesthetized for a short time after inhaling ether, and 300 μL of blood samples was collected from the eyelids and put into test tubes, which contains 30 μL of 1% heparin salt solution. The test tubes were dried overnight at 60° C. prior to use. After the blood sample collection at the last time point, the rats were sacrificed after the ether anesthesia.
Immediately after the collection of the blood samples, the test tubes were gently inverted at least 5 times to ensure the fully mixing and placed on ice. The blood samples were centrifuged at 4° C., 5000 rpm for 5 minutes to separate the plasma from the red blood cells. 100 μL of plasma was pipetted into a clean plastic centrifuge tube, with the name of the compound and time point on it. The plasma was stored at −80° C. before analysis, and LC-MS/MS was used to determine the concentration of the compounds disclosed herein in plasma. Pharmacokinetic parameters were calculated based on the plasma concentrations of each animal at different time points.

A word on the AUC(0-t): it is exposure summed from dosing to a finite time, without extrapolation to infinity. High values mean high exposure, low ones low exposure. The term Cmax denotes the highest concentration seen after dosing. In general, Tmax refers to the time at which the peak concentration occurs. By half-life is commonly meant the time needed for the level to fall by half in the phase considered. Read a low half-life as rapid decline.

Read-outs that look alike come from different tables or passages of the source.

The molecule `[2H]C([2H])([2H])Oc1cc(Nc2nc(NC3CCOCC3)c(CC)nc2C(N)=O)ccc1N1CCC(N2CCN(C)CC2)CC1` [Compound T-1, 6-ethyl-3-((3-(methoxy-d3)-4-(4-(4-methylpiperazin-1-yl)piperidin-1-yl)phenyl)amino)-5-((tetrahydro-2H-pyran-4-yl)amino)pyrazine-2-carboxamide] had an F of 27.52%. Besides, where the note is “IV 3 mg/kg”, the exposure AUC(0-t) was determined as 556 ng·h/mL, the peak level (Cmax) was 138 ng/mL, the time to peak (Tmax) worked out at 0.08 h and the half-life is 3.59 h. Besides, under “IV 3 mg/kg”, the AUC(0-inf) stood at 572 ng·h/mL, the MRT inf is 4.2 h and the Vz_pred stood at 28.80 L/kg. Where the note is “PO 10 mg/kg”, the exposure AUC(0-t) is 510 ng·h/mL, the Cmax was 48.4 ng/mL, the time to peak (Tmax) is 5.33 h and the half-life is 5.93 h. Besides, for the setting “PO 10 mg/kg”, the AUC(0-inf) stood at 578 ng·h/mL, the MRT inf was 7.89 h and the Vz_pred was determined as 162.8 L/kg.
For `CCc1nc(C(N)=O)c(Nc2ccc(N3CCC(N4CCN(C)CC4)CC3)c(OC)c2)nc1NC1CCOCC1` [Gilteritinib, 6-ethyl-3-((3-methoxy-4-(4-(4-methylpiperazin-1-yl)piperidin-1-yl)phenyl)amino)-5-((tetrahydro-2H-pyran-4-yl)amino)pyrazine-2-carboxamide, reference compound], the F is reported as 21.15%. Moreover, under “IV 3 mg/kg”, the AUC(0-t) is 449 ng·h/mL, the Cmax is 196 ng/mL, the Tmax came out at 0.08 h and the half-life was 4.08 h. Further, under “IV 3 mg/kg”, the AUC(0-inf) stood at 509 ng·h/mL, the MRT inf was 3.44 h and the Vz_pred amounted to 34.89 L/kg. For the same molecule, where the note is “PO 10 mg/kg”, the AUC(0-t) was found to be 317 ng·h/mL, the highest level (Cmax) was 34.6 ng/mL, the Tmax came to 8 h and the half-life was 5.76 h. Where the note is “PO 10 mg/kg”, the AUC(0-inf) came out at 435 ng·h/mL, the MRT inf amounted to 7.46 h and the Vz_pred was determined as 212.0 L/kg.
